Assay results taken from patent US20240327359A1, “3-ISOXAZOLIDINONE COMPOUND, PREPARATION METHOD, HERBICIDAL COMPOSITION AND APPLICATION THEREOF” (QINGDAO KINGAGROOT CHEMICAL COMPOUND CO., LTD., priority 2021, published 2024).

Tests used:
Format in all cases: in vivo
wheat = assay: Post-emergence stage, crop damage; conditions: 720 g a.i./ha, 3 weeks after application
From the text: (§1) The activity level criteria for plant damage (i.e., growth control rate) are as follows:
(§2) The above growth control rates are fresh weight control rates.
(§3) Monocotyledonous and dicotyledonous weed seeds (Descurainia sophia, Capsella bursa-pastoris, Abutilon theophrasti, Galium aparine, Stellaria media, Lithospermum arvense, Rorippa indica, Alopecurus aequalis, Alopecurus japonicus, Eleusine indica, Beckmannia syzigachne, Sclerochloa dura, Phleum paniculatum, Veronica didyma, Bromus japonicus, Aegilops tauschii, Phalaris arundinacea, Amaranthus retroflexus, Chenopodiaceae, Commelina communis, Sonchus arvensis, Convolvulus arvensis, Cirsium setosum, Solanumnigrum, Acalypha australis, Digitaria sanguinalis, Echinochloa crusgalli, Setaria viridis, Setaria glauca, Leptochloa chinensis, Monochoria vaginalis, Sagittaria trifolia, Scirpus juncoides, Cyperus rotundus, Cyperus iria, Cyperus difformis, Fimbristylis, Portulaca oleracea, Xanthium sibiricum, Pharbitis nil, Conyza Canadensis, etc.) and major crop seeds (wheat, corn, rice, soybean, cotton, oilseed rape, millet, sorghum, potato, sesame, ricinus, etc.) were placed in plastic pots filled with soil, then covered with 0.5-2 cm of soil, allowed to grow in a good greenhouse environment. Two weeks after sowing, the test plants were treated in the 2-3 leaf stage. The tested compounds of the present invention were respectively dissolved in acetone, then added with Tween 80 and 1.5 liter/ha of emulsifiable concentrate of methyl oleate as synergist, diluted with a certain amount of water to obtain a solution of a certain concentration, and sprayed by a spray tower onto the plants. After the application, the plants were cultured for 3 weeks in the greenhouse, and then the experimental results of the weeding were recorded. The doses of the used compounds were 45, 90, 180, 360, 720 g a.i./ha, and the averages were obtained from three replicates.

rice = assay: Post-emergence stage, crop damage; conditions: 720 g a.i./ha, 3 weeks after application
From the text: as §1, §2, §3

Descurainia sophia = assay: Weeding effect in pre-emergence stage; conditions: 2 weeks
From the text: as §1, §2
(§4) Monocotyledonous and dicotyledonous weed seeds (Descurainia sophia, Capsella bursa-pastoris, Abutilon theophrasti, Galium aparine, Stellaria media, Lithospermum arvense, Rorippa indica, Alopecurus aequalis, Alopecurus japonicus, Eleusine indica, Beckmannia syzigachne, Sclerochloa dura, Phleum paniculatum, Veronica didyma, Bromus japonicus, Aegilops tauschii, Phalaris arundinacea, Amaranthus retroflexus, Chenopodiaceae, Commelina communis, Sonchus arvensis, Convolvulus arvensis, Cirsium setosum, Solanumnigrum, Acalypha australis, Digitaria sanguinalis, Echinochloa crusgalli, Setaria viridis, Setaria glauca, Leptochloa chinensis, Monochoria vaginalis, Sagittaria trifolia, Scirpus juncoides, Cyperus rotundus, Cyperus iria, Cyperus difformis, Fimbristylis, Portulaca oleracea, Xanthium sibiricum, Pharbitis nil, Conyza Canadensis, etc.) and major crop seeds (wheat, corn, rice, soybean, cotton, oilseed rape, millet, sorghum, potato, sesame, ricinus, etc.) were placed in plastic pots filled with soil, then covered with 0.5-2 cm of soil, allowed to grow in a good greenhouse environment. The test plants were treated on the day of sowing. The tested compounds of the present invention were respectively dissolved in acetone, then added with Tween 80, diluted with a certain amount of water to obtain a solution of a certain concentration, and sprayed by a spray tower onto the plants. After the application, the plants were cultured for 2 weeks in the greenhouse, and then the experimental results of the weeding were recorded. The doses of the used compounds were 3, 6, 12, 24, 48 g ai./mu (1 mu=1/15 ha), and the averages were obtained from three replicates.

Echinochloa crusgalli = assay: Weeding effect in pre-emergence stage; conditions: 2 weeks
From the text: as §1, §2, §4

Lolium perenne = assay: Weeding effect in pre-emergence stage; conditions: 2 weeks
From the text: as §1, §2, §4

Leptochloa chinensis [1] = assay: Weeding effect in pre-emergence stage; conditions: 2 weeks
From the text: as §1, §2, §4

Veronica didyma = assay: Weeding effect in pre-emergence stage; conditions: 2 weeks
From the text: as §1, §2, §4

[2] = test system: Echinochloa crusgalli, Scirpus juncoides, Bidens tripartita L., Sagittaria trifolia; rice (japonica rice); assay: Transplanted rice safety evaluation and weed control effect evaluation in rice field; conditions: weeds 14 days, rice 21 days after treatment; observed with the naked eye
Method: Rice field soil was loaded into a 1/1,000,000 ha pot. The seeds of Echinochloa crusgalli, Scirpus juncoides, and Bidens tripartita L. were sowed and gently covered with soil, then placed in a greenhouse with water storage of 0.5-1 cm deep. The tuber of Sagittaria trifolia was planted in the next day or 2 days later. The water storage was kept at a depth of 3-4 cm thereafter. The weeds were treated by homogeneously dripping the WP or SC water diluents of the compounds of the present invention prepared according to the common preparation methods with a pipette to the specified effective amount when the Echinochloa crusgalli, Scirpus juncoides, and Bidens tripartita L. reached their 0.5 leaf stages and the Sagittaria trifolia reached the time point of the primary leaf stage.
In addition, the rice field soil that loaded into the 1/1,000,000 ha pot was leveled to keep water storage at a depth of 3-4 cm. […]
The development condition of Echinochloa crusgalli, Scirpus juncoides, Bidens tripartita L., and Sagittaria trifolia 14 days after the treatment of the compound of the invention and the development condition of rice 21 days after the treatment of the compound of the invention were respectively observed with the naked eye. The weed control effect was evaluated according to the above activity level criteria. […]

Abutilon theophrasti = assay: Weeding effect in post-emergence stage; conditions: 720 g a.i./ha, 3 weeks after application
From the text: as §1, §2, §3

Alopecurus japonicus = assay: Weeding effect in post-emergence stage; conditions: 720 g a.i./ha, 3 weeks after application
From the text: as §1, §2, §3

Leptochloa chinensis [3] = assay: Weeding effect in post-emergence stage; conditions: 720 g a.i./ha, 3 weeks after application
From the text: as §1, §2, §3

Digitaria sanguinalis = assay: Weeding effect in post-emergence stage; conditions: 720 g a.i./ha, 3 weeks after application
From the text: as §1, §2, §3

[4] = test system: Echinochloa crusgalli, Leptochloa chinensis, Digitaria sanguinalis, Descurainia Sophia, Capsella bursa-pastoris, Galium aparine, Stellaria media, Lolium …; assay: Field test, weed control; conditions: applied after planting and pre-emergence at 300 g a.i./ha

CC1(C)CON(Cc2ccc(Cl)cc2Br)C1=O [Compound 1]
plant damage level (growth control rate) on crop, post-emergence stage (wheat): 1 (Level 1: growth control rate is greater than or equal to 5% and less than 20%)
plant damage level (growth control rate) on crop, post-emergence stage (rice): 1 (Level 1: growth control rate is greater than or equal to 5% and less than 20%)
weeding effect in pre-emergence stage, activity level (growth control rate) (Descurainia sophia; 3 g a.i./mu): 7 (Level 7: growth control rate is greater than or equal to 70% and less than 80%)
weeding effect in pre-emergence stage, activity level (growth control rate) (Descurainia sophia; 6 g a.i./mu): 9
weeding effect in pre-emergence stage, activity level (growth control rate) (Descurainia sophia; 12 g a.i./mu): 9
weeding effect in pre-emergence stage, activity level (growth control rate) (Descurainia sophia; 24 g a.i./mu): 9
weeding effect in pre-emergence stage, activity level (growth control rate) (Echinochloa crusgalli; 3 g a.i./mu): 8 (Level 8: growth control rate is greater than or equal to 80% and less than 100%)
weeding effect in pre-emergence stage, activity level (growth control rate) (Echinochloa crusgalli; 6 g a.i./mu): 9
weeding effect in pre-emergence stage, activity level (growth control rate) (Echinochloa crusgalli; 12 g a.i./mu): 9
weeding effect in pre-emergence stage, activity level (growth control rate) (Echinochloa crusgalli; 24 g a.i./mu): 9
weeding effect in pre-emergence stage, activity level (growth control rate) (Lolium perenne; 6 g a.i./mu): 2 (Level 2: growth control rate is greater than or equal to 15% and less than 30%)
weeding effect in pre-emergence stage, activity level (growth control rate) (Lolium perenne; 24 g a.i./mu): 9
weeding effect in pre-emergence stage, activity level (growth control rate) (Leptochloa chinensis [1]; 3 g a.i./mu): 9
weeding effect in pre-emergence stage, activity level (growth control rate) (Leptochloa chinensis [1]; 6 g a.i./mu): 9
weeding effect in pre-emergence stage, activity level (growth control rate) (Leptochloa chinensis [1]; 12 g a.i./mu): 9
weeding effect in pre-emergence stage, activity level (growth control rate) (Leptochloa chinensis [1]; 24 g a.i./mu): 9
weeding effect in pre-emergence stage, activity level (growth control rate) (Veronica didyma; 6 g a.i./mu): 8 (Level 8: growth control rate is greater than or equal to 80% and less than 100%)
weeding effect in pre-emergence stage, activity level (growth control rate) (Veronica didyma; 12 g a.i./mu): 9
weeding effect in pre-emergence stage, activity level (growth control rate) (Veronica didyma; 24 g a.i./mu): 9
weed control effect and transplanted rice safety in rice field [2]: excellent activity and selectivity
weeding effect in post-emergence stage, activity level (growth control rate) (Abutilon theophrasti): 5 (Level 5: growth control rate is greater than or equal to 85%)
weeding effect in post-emergence stage, activity level (growth control rate) (Alopecurus japonicus): 4 (Level 4: growth control rate is greater than or equal to 60% and less than 85%)
weeding effect in post-emergence stage, activity level (growth control rate) (Leptochloa chinensis [3]): 5 (Level 5: growth control rate is greater than or equal to 85%)
weeding effect in post-emergence stage, activity level (growth control rate) (Digitaria sanguinalis): 5 (Level 5: growth control rate is greater than or equal to 85%)
control of major weeds in field test [4]: effectively controls
